According to US20210127673A1, “HERBICIDES” (SYNGENTA PARTICIPATIONS AG, priority 2016, published 2021):

Legend:
Format in all cases: in vivo
Conditions in all cases: evaluated after 13 days
[1] = tested on: Triticum aestivium (TRZAW); assay: Post-emergence herbicidal activity, Triticum aestivium; design: key: 5=total damage to plant; 0=no damage to plant
Procedure, shortened: (§1)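 Scoring runs 0 (no damage) to 5 (total damage), assessed 13 days after treatment. Seedlings 8 days post-sowing received an aqueous spray from acetone/water 50:50 with 0.5% Tween 20, then were kept at 24/16 °C, 14 h light, 65% humidity and watered twice daily.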

[2] = tested on: Alopecurus myosuroides (ALOMY); assay: Pre-emergence herbicidal activity, Alopecurus myosuroides; design: key: 5=total damage to plant; 0=no damage to plant
Procedure, shortened: (§2)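 Compound is applied as an aqueous spray (acetone/water 50:50, 0.5% Tween 20) to pots one day after sowing, before emergence. Growth continues in a glasshouse at 24/16 °C, 14 h photoperiod, 65% humidity, with twice-daily watering, and injury is graded after 13 days from 0 (no damage) to 5 (total damage).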

[3] = tested on: Triticum aestivium (TRZAW); assay: Pre-emergence herbicidal activity, Triticum aestivium; design: key: 5=total damage to plant; 0=no damage to plant
Procedure, shortened: as §2

Avena fatua (AVEFA) [4] = assay: Post-emergence herbicidal activity, Avena fatua
Procedure, shortened: as §1

[5] = tested on: Alopecurus myosuroides (ALOMY); assay: Post-emergence herbicidal activity, Alopecurus myosuroides; design: key: 5=total damage to plant; 0=no damage to plant
Procedure, shortened: as §1

Avena fatua (AVEFA) [6] = assay: Pre-emergence herbicidal activity, Avena fatua; design: key: 5=total damage to plant; 0=no damage to plant
Procedure, shortened: as §2

Lolium perenne (LOLPE) [7] = assay: Pre-emergence herbicidal activity, Lolium perenne; design: key: 5=total damage to plant; 0=no damage to plant
Procedure, shortened: as §2

Setaria faberi (SETFA) [8] = assay: Post-emergence herbicidal activity, Setaria faberi; design: key: 5=total damage to plant; 0=no damage to plant
Procedure, shortened: as §1

Setaria faberi (SETFA) [9] = assay: Pre-emergence herbicidal activity, Setaria faberi; design: key: 5=total damage to plant; 0=no damage to plant
Procedure, shortened: as §2

[10] = tested on: Echinochloa crus-galli (ECHCG); assay: Pre-emergence herbicidal activity, Echinochloa crus-galli; design: key: 5=total damage to plant; 0=no damage to plant
Procedure, shortened: as §2

[11] = tested on: Echinochloa crus-galli (ECHCG); assay: Post-emergence herbicidal activity, Echinochloa crus-galli; design: key: 5=total damage to plant; 0=no damage to plant
Procedure, shortened: as §1

Lolium perenne (LOLPE) [12] = assay: Post-emergence herbicidal activity, Lolium perenne; design: key: 5=total damage to plant; 0=no damage to plant
Procedure, shortened: as §1

SMILES | Control of TRAZW after post-emergence application (score 0-5) ([1]; 1000 g/ha) | Control of ALOMY after pre-emergence application (score 0-5) ([2]; 1000 g/ha) | Control of TRAZW after pre-emergence application (score 0-5) ([3]; 1000 g/ha) | Control of AVEFA after post-emergence application (score 0-5) (Avena fatua (AVEFA) [4]; 1000 g/ha) | Control of ALOMY after post-emergence application (score 0-5) ([5]; 1000 g/ha) | Control of AVEFA after pre-emergence application (score 0-5) (Avena fatua (AVEFA) [6]; 1000 g/ha) | Control of LOLPE after pre-emergence application (score 0-5) (Lolium perenne (LOLPE) [7]; 1000 g/ha) | Control of SETFA after post-emergence application (score 0-5) (Setaria faberi (SETFA) [8]; 1000 g/ha) | Control of SETFA after pre-emergence application (score 0-5) (Setaria faberi (SETFA) [9]; 1000 g/ha) | Control of ECHCG after pre-emergence application (score 0-5) ([10]; 1000 g/ha) | Control of ECHCG after post-emergence application (score 0-5) ([11]; 1000 g/ha) | Control of LOLPE after post-emergence application (score 0-5) (Lolium perenne (LOLPE) [12]; 1000 g/ha) | Control of TRAZW after post-emergence application (score 0-5) ([1]; 250 g/ha) | Control of ALOMY after pre-emergence application (score 0-5) ([2]; 250 g/ha) | Control of TRAZW after pre-emergence application (score 0-5) ([3]; 250 g/ha) | Control of AVEFA after post-emergence application (score 0-5) (Avena fatua (AVEFA) [4]; 250 g/ha) | Control of ALOMY after post-emergence application (score 0-5) ([5]; 250 g/ha) | Control of AVEFA after pre-emergence application (score 0-5) (Avena fatua (AVEFA) [6]; 250 g/ha) | Control of LOLPE after pre-emergence application (score 0-5) (Lolium perenne (LOLPE) [7]; 250 g/ha) | Control of SETFA after post-emergence application (score 0-5) (Setaria faberi (SETFA) [8]; 250 g/ha) | also measured
COc1nc(-c2cncc(F)c2)ccc1N(C(=O)OC(C)(C)C)C(=O)OC(C)(C)C [Compound B109] | 0 | 0 | 0 | 1 | 0 | 1 | 0 | 1 | 3 | 0 | 1 | 0 |  |  |  |  |  |  |  |  | 
CC(C)(C)CNC(=O)Nc1ccc(-c2cncc(F)c2)nc1C(F)(F)F [Compound B107] |  |  |  |  |  |  |  |  |  |  |  |  | 0 | 1 | 1 | 3 | 0 | 1 | 3 | 5 | Control of SETFA after pre-emergence application (score 0-5) (Setaria faberi (SETFA) [9]; 250 g/ha): 4; Control of ECHCG after pre-emergence application (score 0-5) ([10]; 250 g/ha): 3; Control of ECHCG after post-emergence application (score 0-5) ([11]; 250 g/ha): 3; Control of LOLPE after post-emergence application (score 0-5) (Lolium perenne (LOLPE) [12]; 250 g/ha): 1
O=C(Nc1ccc(-c2cncnc2)nc1C(F)(F)F)N1CCOCC1 [Compound B55] | 0 | 0 | 0 | 2 | 0 | 1 | 0 | 4 | 1 | 1 | 3 | 1 |  |  |  |  |  |  |  |  | 
Cc1cnc(CNC(=O)Nc2ccc(-c3cncc(F)c3)nc2C(F)(F)F)cn1 [Compound B92] |  |  |  |  |  |  |  |  |  |  |  |  | 0 | 0 | 0 | 3 | 0 | 1 | 0 | 4 | Control of SETFA after pre-emergence application (score 0-5) (Setaria faberi (SETFA) [9]; 250 g/ha): 5; Control of ECHCG after pre-emergence application (score 0-5) ([10]; 250 g/ha): 1; Control of ECHCG after post-emergence application (score 0-5) ([11]; 250 g/ha): 3; Control of LOLPE after post-emergence application (score 0-5) (Lolium perenne (LOLPE) [12]; 250 g/ha): 1
O=C(Nc1ccc(-c2cncc(F)c2)nc1C(F)(F)F)OCc1ccccc1 [Compound B53] | 1 | 0 | 0 | 4 | 1 | 1 | 1 | 5 | 4 | 2 | 5 | 2 |  |  |  |  |  |  |  |  | 
CN(C(=O)OC(C)(C)C)c1ccc(-c2cncc(C#N)c2)nc1C(F)(F)F [Compound B4] | 2 | 0 | 1 | 2 | 1 | 0 | 0 | 5 | 4 | 1 | 4 | 1 |  |  |  |  |  |  |  |  | 
CC(C)(C)OC(=O)N(C(=O)OC(C)(C)C)c1ccc(-c2cncc(F)c2)nc1C(F)(F)F [Compound B113] | 2 | 1 | 0 | 4 | 1 | 3 | 1 | 5 | 5 | 5 | 5 | 3 |  |  |  |  |  |  |  |  | 
O=C(Nc1ccc(-c2cncc(F)c2)nc1C(F)(F)F)N1CCSC1 [Compound B68, N-[6-(5-fluoro-3-pyridyl)-2-(trifluoromethyl)-3-pyridyl]thiazolidine-3-carboxamide] | 2 | 1 | 0 | 3 | 0 | 2 | 1 | 5 | 4 | 3 | 5 | 2 |  |  |  |  |  |  |  |  | 
CC(C)(C)NC(=O)Nc1ccc(-c2cncc(F)c2)nc1C(F)(F)F [Compound B65] | 0 | 1 | 0 | 3 | 1 | 2 | 1 | 4 | 3 | 2 | 5 | 3 |  |  |  |  |  |  |  |  | 
O=C(NCC1CC1)Nc1ccc(-c2cncc(F)c2)nc1C(F)(F)F [Compound B104] |  |  |  |  |  |  |  |  |  |  |  |  | 0 | 0 | 0 | 3 | 1 | 0 | 1 | 5 | Control of SETFA after pre-emergence application (score 0-5) (Setaria faberi (SETFA) [9]; 250 g/ha): 5; Control of ECHCG after pre-emergence application (score 0-5) ([10]; 250 g/ha): 2; Control of ECHCG after post-emergence application (score 0-5) ([11]; 250 g/ha): 3; Control of LOLPE after post-emergence application (score 0-5) (Lolium perenne (LOLPE) [12]; 250 g/ha): 1
O=C(NCc1cccnc1)Nc1ccc(-c2cncc(F)c2)nc1C(F)(F)F [Compound B97] |  |  |  |  |  |  |  |  |  |  |  |  | 0 | 0 | 0 | 2 | 0 | 0 | 0 | 1 | Control of SETFA after pre-emergence application (score 0-5) (Setaria faberi (SETFA) [9]; 250 g/ha): 0; Control of ECHCG after pre-emergence application (score 0-5) ([10]; 250 g/ha): 0; Control of ECHCG after post-emergence application (score 0-5) ([11]; 250 g/ha): 1; Control of LOLPE after post-emergence application (score 0-5) (Lolium perenne (LOLPE) [12]; 250 g/ha): 1
CC(C)CNC(=O)Nc1ccc(-c2cncc(F)c2)nc1C(F)(F)F [Compound B90] |  |  |  |  |  |  |  |  |  |  |  |  | 0 | 0 | 0 | 3 | 0 | 1 | 1 | 5 | Control of SETFA after pre-emergence application (score 0-5) (Setaria faberi (SETFA) [9]; 250 g/ha): 5; Control of ECHCG after pre-emergence application (score 0-5) ([10]; 250 g/ha): 4; Control of ECHCG after post-emergence application (score 0-5) ([11]; 250 g/ha): 4; Control of LOLPE after post-emergence application (score 0-5) (Lolium perenne (LOLPE) [12]; 250 g/ha): 2
